Results taken from article PMC6484444 (Analytical biochemistry, 2018).

What was measured:
ClpP1P2 (ClpP1) = ClpP1P2 (ClpP1) (Mycobacterium tuberculosis, UniProt P9WPC3+P9WPC5); assay type: biochemical
[1] = tested on: Nc1ncnc2c1ncn2[C@@H]1O[C@H](COP(=O)(O)OP(=O)(O)OP(=O)(O)O)[C@@H](O)[C@H]1O; experiment: purified protein

Sequence of ClpP1P2 (ClpP1) (P9WPC5 whole entry, looked up): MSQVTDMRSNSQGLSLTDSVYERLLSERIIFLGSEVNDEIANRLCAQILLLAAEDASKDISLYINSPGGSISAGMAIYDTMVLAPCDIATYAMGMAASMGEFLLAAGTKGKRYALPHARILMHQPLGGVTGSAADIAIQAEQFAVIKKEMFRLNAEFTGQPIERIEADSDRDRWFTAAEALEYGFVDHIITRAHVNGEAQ
Sequence of ClpP1P2 (ClpP1) (P9WPC3 whole entry, looked up): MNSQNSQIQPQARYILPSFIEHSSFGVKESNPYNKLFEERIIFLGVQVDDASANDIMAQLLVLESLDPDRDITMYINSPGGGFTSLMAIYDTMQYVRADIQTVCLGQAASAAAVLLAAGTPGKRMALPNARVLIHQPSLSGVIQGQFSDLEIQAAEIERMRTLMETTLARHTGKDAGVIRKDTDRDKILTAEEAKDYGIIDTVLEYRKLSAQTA

Molecule: O=c1oc(Cl)c(Cl)c2ccccc12 [DCC, 3,4-Dichloroisocoumarin]
- IC50 (ClpP1P2 (ClpP1)): 80 µM

Molecule: ClpC1 (Mycobacterium tuberculosis H37Rv)
- Km [1]: 1400 ± 100 µM
